US20240408094A1, “INHIBITION OF USP7 INDUCES P53-INDEPENDENT TUMOR GROWTH SUPPRESSION IN TRIPLE-NEGATIVE BREAST CANCERS BY DESTABILIZING FOXM1” (The Trustees of Columbia University in the City of New York, priority 2023, published 2024)
Where a SMILES comes first, the peptide text is derived from it. The star is where a group is joined. Cbz = O=C(OCc1ccccc1)*

Legend:
USP7 [1] = biological target: T1, USP7 (Homo sapiens, UniProt Q93009); experiment: Rescue of PU7-1-mediated USP7 degradation by pathway inhibitors in CAL33; assay type: cell-based; conditions: CAL33, 5 μM PU7-1; 5 μM MLN4924, 25 μM Chloroquine or 5 μM MG132 for 24 h
T1 construct: used to treat CAL33 cells that express high levels of USP7 protein; endogenous in cells; host or cells: CAL33 (human head and neck squamous cell cancer); for A6 also the CRBN CRISPR knockout CAL33
Protocol: USP7 protein levels were detected by immunoblots. […] USP7 protein levels were measured by immunoblots. […] USP7 protein levels were detected by immunoblots, then quantified by ImageJ after normalized to internal control β-actin. Half maximal degradation concentration (DC50) was calculated by Graphpad Prism.
To investigate the mechanism of action of PU7-1, CRBN knockout (KO) CAL33 cell line was generated using CRISPR-Cas9 technology. Control and CRBN KO cells were treated with 2.5 μM of PU7-1 for 72 h and then the expression levels of USP7 and CRBN proteins were detected by western blot analysis. CRBN protein was undetectable in the KO cells (FIG. 3H). […] CAL33 cells were first treated with 5 μM of PU7-1 for 48 h to degrade the USP7 proteins, and then treated with 5 μM of MLN4924, 25 μM of Chloroquine (CLQ) or 5 μM of MG132 for additional 24 h.

FOXM1 = experiment: Block of PU7-1-induced FOXM1 destabilization by pathway inhibitors in CAL33; assay type: cell-based, human; conditions: CAL33, 10 μM PU7-1 72 h; 1 μM MLN4924 or BafA1 24 h, 10 μM MG132 6 h
USP7 [2] = biological target: T1, USP7; experiment: USP7 protein degradation by western blot in CAL33 cells; assay type: cell-based; conditions: CAL33 and A549 cells, 2.5 μM, 48 h
Protocol: To specifically degrade USP7, a set of 66 PROTAC compounds were designed and synthesized that contain an USP7 specific binding moiety XL177A and an E3 ubiquitin ligase (CRBN or VHL) binding moiety connected by different linkers. All putative USP7 PROTACs were used to treat CAL33 cells that express high levels of USP7 protein, and then the USP7 protein levels were determined by western blot (FIGS. 10A and 10B). Through initial screening, PU7-1 was identified as a potential USP7 degrader (FIG. 3A and FIG. 10). […] The effect of PU7-1 was also tested in several human cancer cells harboring wild-type p53. […] In addition, to exclude the possibility that PU7-1 affects the USP7 protein levels by regulating its transcription, a quantitative real-time PCR was performed in CAL33 treated with PU7-1 for 72 h. […]
Cells were lysed in FLAG lysis buffer (50 mM Tris-HCl (pH 7.3), 137 mM NaCl, 10 mM NaF, 0.5 mM EDTA, 1% Triton X-100, 0.2% Sarkosyl, 10% glycerol) freshly supplemented with protease inhibitor cocktail. Protein concentration was determined by the Bio-Rad protein assay. […] Membranes were blocked with 5% (w/v) nonfat milk in Tris-buffered saline with Tween-20 (TBST), incubated with primary antibodies, then secondary HRP-conjugated antibodies (Jackson ImmunoResearch, 1:10000 dilution) and detected on autoradiographic films after incubating with ECL (Thermo Scientific, #32106). […]

T1 sequence (Q93009 whole entry): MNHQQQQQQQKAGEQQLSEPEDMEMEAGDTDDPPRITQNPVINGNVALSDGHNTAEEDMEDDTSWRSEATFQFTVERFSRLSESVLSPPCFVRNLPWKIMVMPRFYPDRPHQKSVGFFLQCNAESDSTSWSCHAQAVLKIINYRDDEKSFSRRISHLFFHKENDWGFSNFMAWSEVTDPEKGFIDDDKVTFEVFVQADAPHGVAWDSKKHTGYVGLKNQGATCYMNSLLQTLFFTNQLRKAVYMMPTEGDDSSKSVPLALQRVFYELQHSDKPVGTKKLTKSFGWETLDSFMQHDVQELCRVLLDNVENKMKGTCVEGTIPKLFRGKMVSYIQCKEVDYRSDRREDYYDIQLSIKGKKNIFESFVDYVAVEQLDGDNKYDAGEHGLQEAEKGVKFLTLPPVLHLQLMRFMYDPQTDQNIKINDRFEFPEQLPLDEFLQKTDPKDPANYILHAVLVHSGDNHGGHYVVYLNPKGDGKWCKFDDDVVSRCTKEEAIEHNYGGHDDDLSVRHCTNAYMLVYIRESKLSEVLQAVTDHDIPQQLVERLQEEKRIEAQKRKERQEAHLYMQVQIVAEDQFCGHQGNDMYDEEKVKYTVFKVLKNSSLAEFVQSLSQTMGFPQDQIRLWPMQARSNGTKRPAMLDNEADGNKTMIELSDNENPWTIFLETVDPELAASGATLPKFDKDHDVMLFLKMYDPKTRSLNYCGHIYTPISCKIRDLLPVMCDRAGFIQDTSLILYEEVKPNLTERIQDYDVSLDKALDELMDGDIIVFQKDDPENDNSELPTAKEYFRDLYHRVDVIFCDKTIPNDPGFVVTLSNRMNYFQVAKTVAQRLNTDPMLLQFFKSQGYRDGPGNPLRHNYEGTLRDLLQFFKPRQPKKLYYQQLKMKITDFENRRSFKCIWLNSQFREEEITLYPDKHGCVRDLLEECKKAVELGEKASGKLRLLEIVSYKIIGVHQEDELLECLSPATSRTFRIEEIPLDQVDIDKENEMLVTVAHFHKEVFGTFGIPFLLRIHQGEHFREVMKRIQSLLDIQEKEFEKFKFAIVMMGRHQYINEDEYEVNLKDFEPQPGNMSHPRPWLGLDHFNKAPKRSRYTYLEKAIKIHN

effect on USP7 degradation mediated by PU7-1 (USP7 [1]) | Compound | block of PU7-1-induced destabilization of FOXM1 (FOXM1) | capability to degrade USP7 protein (USP7 [2])
no effect | CCN(CC)CCCC(C)Nc1ccnc2cc(Cl)ccc12 (stereo not drawn) [Chloroquine] | – | –
significantly rescued | NS(=O)(=O)OC[C@@H]1C[C@@H](n2ccc3c(N[C@H]4CCc5ccccc54)ncnc32)C[C@@H]1O [MLN4924] | readily blocked | –
– | CN1C(=O)CCC(N2Cc3c(CCCCCN4CCN(CCC(=O)Nc5ccc6c(=O)n(CC7(O)CCN(C(=O)C(CCCNC(=O)c8ccc9c(Cl)c%10c(nc9c8)CCCC%10)Cc8ccccc8)CC7)cnc6c5)CC4)cccc3C2=O)C1=O (stereo not drawn) [PU7-1N, N-(4-benzyl-5-(4-hydroxy-4-((7-(3-(4-(5-(2-(1-methyl-2,6-dioxopiperidin-3-yl)-1-oxoisoindolin-4-yl)pentyl)piperazin-1-yl)propanamido)-4-oxoquinazolin-3 (4H)-yl)methyl)piperidin-1-yl)-5-oxopentyl)-9-chloro-5,6,7,8-tetrahydroacridine-3-carboxamide] | – | defective capability to degrade USP7 protein

Compound | effect on USP7 degradation mediated by PU7-1 (USP7 [1]) | block of PU7-1-induced destabilization of FOXM1 (FOXM1) | capability to degrade USP7 protein (USP7 [2])
CC(C)C[C@@H](C=O)NC(=O)[C@H](CC(C)C)NC(=O)[C@H](CC(C)C)NC(=O)OCc1ccccc1 [MG132] (Cbz-Leu-Leu-Leu-aldehyde) | significantly rescued | readily blocked | –
